Patent US9283297B2, “Sanitary article comprising a microbe-inhibiting composition” (SCA HYGIENE PRODUCTS AB, priority 2006, dated 2016)
Where “and” joins values, the source holds several entries; their conditions need not be identical. Equal entries are not always repeated.

Key:
[1] = tested on: Candida albicans 702; assay: Test 4: agar plug test, zones with no growth of Candida; type: cell-based; conditions: for Zones around the plugs with no growth of Candida, Plug with LB931: ~10^7 LB 931 per plug
Text: The purpose of this test was to evaluate the enhanced Candida inhibition from Na-acetate in combination with growing cells of Lactobacillus plantarum LB 931. Two plates were made with M17 agar and two with MRS agar. MRS medium (developed by De Man, Rogosa and Sharpe), is a growth medium commonly used for Lactobacillus. MRS agar from Merck contains 5 g sodium acetate per litre agar. M17 (Oxoid) is a similar commercial substrate for Lactobacillus but without the addition of sodium acetate. The agars were prepared as described on the packages. Lactobacillus plantarum LB931 was cultivated in MRS broth in 37° C. with 5% CO2 for 24 hours. Candida albicans 702 was cultivated in M17 broth at 37° C. for 24 hours. Holes (Ø10 mm) were punched in the plates and filled with 250 μl plugs of agar mixtures containing ˜10^7 LB 931 in MRS agar). The plates were left for 30 minutes and then incubated 24 hours at 37° C. with 5% CO2. Overnight culture of C. albicans in M17 broth was diluted 10 times and 100 μl was spread on the surface of each plate. The plates were then incubated for 24 hours at 37° C. As controls, holes (Ø10 mm) were filled with only MRS agar. The plates were evaluated in respect to Candida growth inhibition. Zones around the plugs with no growth of Candida were measured (Ø mm).

[2] = tested on: C. albicans; assay: Example 1 Screening II: Lactobacillus cell-free filtrate, turbidity; type: cell-based, Candida albicans; conditions: three times concentrated
Text: (§1) Clinical isolates of Candida albicans and Candida glabrata were used as test strains. These were isolated from the vagina of women with vaginal candidiasis and from healthy females. Suspensions of lactobacilli grown in dMRSs broth (MRS broth without addition of sodium acetate) were centrifuged and sterile filtered. The filtrate is henceforth called Lactobacillus Cell-free Filtrate, LCF. A specified volume was transferred to wells of a micro titre plate and was let to air dry and thereafter resuspended in sterile distilled water to a concentration three times higher and transferred to 96-wells micro titre plates. Candida was added to all vials (three isolates of C. albicans and C. glabrata, respectively, were used). The inhibition was evaluated by visual observation of turbidity and graduated by two persons using a template on a scale from five to zero. The wells containing strong growth of Candida sp. in pure dMRSs-broth was graduated as five, while wells with no visual growth were graduated as zero.

[3] = tested on: C. glabrata; assay: as above; type: cell-based, Candida glabrata; conditions: three times concentrated
Text: as §1

Row | Substance | Zones around the plugs with no growth of Candida, Plug with LB931 ([1]; M17 agar in the Petri dish (without sodium acetate)) | Candida growth inhibition, in words ([1]; M17 agar plates (without sodium acetate)) | Zones around the plugs with no growth of Candida, Plug with LB931 ([1]; MRS agar in the Petri dish (contains 5 g sodium acetate per litre)) | Candida growth inhibition zones, in words ([1]; MRS agar plates (sodium acetate)) | inhibition of growth of C. albicans [2] | inhibition of growth of C. glabrata [3]
1 | Lactobacillus plantarum LB 931 [LB931] | 0 Ø mm | substantially no inhibition of Candida | 18.8 Ø mm and 18.1 Ø mm | clear zones | – | –
2 | Lactobacillus fermentum Ess-1 | – | – | – | – | comprehensive capacity to inhibit growth of Candida | comprehensive capacity to inhibit growth of Candida
